For series [1], the system named is calvaria cells. The series is described as follows: Oxygen consumption rate and ATP production (seahorse) in wildtype and Piezo1 knockout calvaria cells. The settings on record: 10 μM, 1 hour; for changes in mitochondrial oxygen consumption rate in cells lacking Piezo1 / increases in ATP production in Piezo1 knockout cells: Piezo1 knockout calvaria cells. Type of series: cell-based. The procedure: To determine whether activation of Piezo1 by Yoda1 or YW-3-170 is associated with increased mitochondrial function, we measured oxygen consumption rate and ATP production in calvaria cells treated by Yoda1 or YW-3-170. Wildtype and Piezo1 knockout calvarial cells were cultured in α-MEM medium supplemented with 10% fetal bovine serum and treated with 10 μM Yoda1 or YW-3-170 for 1 hour. Oxygen consumption rate and ATP production were measured using seahorse. […] Importantly, these increases were diminished in Piezo1 knockout cells.

In series [2] the test system is calvaria cells. The series can be described thus: Mitochondria staining (MitoBright dye) in wildtype and Piezo1 knockout calvaria cells. Type of series: cell-based. The settings on record: 10 μM, 24 hours; for increases in mitochondria staining in Piezo1 knockout cells: Piezo1 knockout calvaria cells; for mitochondria staining: wildtype calvaria cells. The protocol:
Next, we determined whether Yoda1 or YW-3-170 increase mitochondria number in primary calvaria cells. Wildtype and Piezo1 knockout calvarial cells were treated with 10 μM Yoda1 or YW-3-170 for 24 hours and then were stained for Mitochondria using MitoBright dye. […] However, these increases were blunted in Piezo1 knockout cells. […] The fluorescence intensity was quantified using the ImageJ software.

The target of a further series is T1, Piezo1 (Mus musculus, UniProt E2JF22).
T1 construct: To identify Piezo1 stimulators, we treated MLO-Y4 cells with compounds; endogenous in cells; host or cells: MLO-Y4 (murine osteocyte-like cell line); control sh-Luc cells, with sh-Piezo1 knock-down cells as the specificity control
T1 sequence (E2JF22 whole entry): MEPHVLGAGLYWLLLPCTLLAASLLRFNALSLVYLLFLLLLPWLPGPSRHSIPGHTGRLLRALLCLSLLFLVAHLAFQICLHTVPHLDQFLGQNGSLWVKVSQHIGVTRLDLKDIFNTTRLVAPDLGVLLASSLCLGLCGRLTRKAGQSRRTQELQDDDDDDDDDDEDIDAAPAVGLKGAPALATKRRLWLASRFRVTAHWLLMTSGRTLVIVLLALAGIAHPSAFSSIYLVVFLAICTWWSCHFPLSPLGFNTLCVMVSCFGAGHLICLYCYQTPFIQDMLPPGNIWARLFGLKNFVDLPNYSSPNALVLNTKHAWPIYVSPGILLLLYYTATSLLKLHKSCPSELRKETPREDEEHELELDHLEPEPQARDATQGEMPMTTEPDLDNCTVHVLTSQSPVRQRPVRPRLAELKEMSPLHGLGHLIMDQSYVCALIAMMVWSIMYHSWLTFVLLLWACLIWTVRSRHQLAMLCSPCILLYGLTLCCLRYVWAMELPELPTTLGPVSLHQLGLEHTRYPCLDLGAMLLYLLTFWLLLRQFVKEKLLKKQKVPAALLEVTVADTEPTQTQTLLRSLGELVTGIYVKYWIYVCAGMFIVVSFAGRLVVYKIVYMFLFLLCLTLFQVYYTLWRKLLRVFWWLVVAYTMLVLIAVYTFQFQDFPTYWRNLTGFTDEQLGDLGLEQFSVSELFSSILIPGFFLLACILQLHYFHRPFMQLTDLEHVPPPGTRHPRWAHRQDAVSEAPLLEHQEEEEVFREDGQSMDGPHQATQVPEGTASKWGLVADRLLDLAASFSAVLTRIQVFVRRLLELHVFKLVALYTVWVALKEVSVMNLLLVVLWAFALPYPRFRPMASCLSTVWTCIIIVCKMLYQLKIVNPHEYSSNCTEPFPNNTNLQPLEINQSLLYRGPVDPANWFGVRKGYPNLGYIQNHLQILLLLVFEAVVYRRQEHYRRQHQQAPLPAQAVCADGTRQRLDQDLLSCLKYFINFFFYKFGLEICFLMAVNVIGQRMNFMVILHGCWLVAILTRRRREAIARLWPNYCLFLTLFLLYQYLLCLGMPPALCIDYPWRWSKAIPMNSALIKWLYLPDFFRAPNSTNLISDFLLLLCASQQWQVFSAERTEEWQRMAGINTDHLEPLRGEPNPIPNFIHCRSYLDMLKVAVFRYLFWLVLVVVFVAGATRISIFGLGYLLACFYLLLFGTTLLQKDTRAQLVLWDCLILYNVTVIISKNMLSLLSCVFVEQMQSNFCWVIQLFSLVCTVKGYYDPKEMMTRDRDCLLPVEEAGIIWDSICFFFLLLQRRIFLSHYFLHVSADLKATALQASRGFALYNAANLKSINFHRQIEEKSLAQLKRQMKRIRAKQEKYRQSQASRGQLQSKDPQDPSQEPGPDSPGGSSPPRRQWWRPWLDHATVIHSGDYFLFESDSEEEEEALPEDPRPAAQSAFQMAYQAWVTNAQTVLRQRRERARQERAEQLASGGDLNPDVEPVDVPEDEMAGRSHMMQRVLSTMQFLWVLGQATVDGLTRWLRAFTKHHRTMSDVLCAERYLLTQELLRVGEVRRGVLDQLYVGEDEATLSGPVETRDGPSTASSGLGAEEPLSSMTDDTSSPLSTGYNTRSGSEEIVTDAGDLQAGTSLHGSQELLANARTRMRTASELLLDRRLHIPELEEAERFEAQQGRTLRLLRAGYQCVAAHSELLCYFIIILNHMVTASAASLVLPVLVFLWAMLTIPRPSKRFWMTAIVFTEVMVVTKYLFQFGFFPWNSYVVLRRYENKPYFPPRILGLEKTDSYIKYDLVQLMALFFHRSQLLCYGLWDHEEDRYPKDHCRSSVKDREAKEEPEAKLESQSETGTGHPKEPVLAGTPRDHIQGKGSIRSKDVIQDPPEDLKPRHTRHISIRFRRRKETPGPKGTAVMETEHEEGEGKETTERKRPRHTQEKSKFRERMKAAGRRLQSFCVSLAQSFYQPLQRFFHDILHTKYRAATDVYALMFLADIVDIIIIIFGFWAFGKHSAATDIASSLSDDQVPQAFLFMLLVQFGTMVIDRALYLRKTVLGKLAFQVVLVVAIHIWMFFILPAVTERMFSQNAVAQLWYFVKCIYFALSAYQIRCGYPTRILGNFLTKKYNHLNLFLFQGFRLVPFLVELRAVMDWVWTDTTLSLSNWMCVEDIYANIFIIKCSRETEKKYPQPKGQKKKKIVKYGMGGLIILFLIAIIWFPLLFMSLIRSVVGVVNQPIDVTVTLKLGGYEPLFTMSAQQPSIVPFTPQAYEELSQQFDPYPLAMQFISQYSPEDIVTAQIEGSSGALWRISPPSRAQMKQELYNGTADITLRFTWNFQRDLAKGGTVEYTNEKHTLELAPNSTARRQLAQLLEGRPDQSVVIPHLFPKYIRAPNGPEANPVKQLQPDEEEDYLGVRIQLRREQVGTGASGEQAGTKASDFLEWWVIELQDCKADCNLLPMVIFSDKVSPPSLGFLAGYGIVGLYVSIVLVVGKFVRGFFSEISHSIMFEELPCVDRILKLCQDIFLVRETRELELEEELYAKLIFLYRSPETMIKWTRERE
The series is described as follows: Activation of Piezo1 in MLO-Y4 cells, overall conclusion from gene expression and calcium influx. The class given is cell-based, murine. The protocol:
To identify Piezo1 stimulators, we treated MLO-Y4 cells with compounds Yoda1, YW-3-159, W-3-163, W-3-168-1, W-3-168-2, W-3-170, W-3-173-1, W-3-173-2, and YW-3-174. Gene expression of Wnt1, Ptgs2, and Tnfrsf11b was measured to determine the activation of Piezo1. In addition, intracellular calcium concentration was measured to determine the activity of Piezo1 channel. […] Yoda1 was used as a positive control in all experiments.

In series [3] the test system is osteocyte-enriched cortical bone. The series can be described thus: Wnt1 expression in tibia after one Yoda1 injection. The class given is in vivo. The settings on record: 4-month-old female C57BL/6J mice, one injection 5 μmol/kg intraperitoneally, tibiae 4 hours later. The procedure:
To quantify cancellous bone formation, we injected mice with calcein (20 mg/kg body weight) intraperitoneally 7 and 3 days before harvest. To quantify periosteal and endocortical bone formation, we injected mice with calcein (20 mg/kg body weight) and Alizarin Red (20 mg/kg body weight) 10 and 3 days before harvest. For gene expression, we injected Yoda1 into 4-month-old female C57BL/6J mice one time and harvested tibiae 4 hours later for RNA extraction. For bone mass evaluation, we injected Yoda1 into 4-month-old female C57BL/6J mice 5 consecutive days per week for 2 weeks (day 1-5 and day 8-12) and harvested the mice at day 15 for analysis. […]
Quantitative PCR. […] We performed quantitative RT-PCR using the following Taqman assays from Applied Biosystems: Piezo1 (Mm01241549_m1); Piezo2 (Mm01265861_m1); Ptgs2 (Mm00478374_m1); Cyr61 (Mm00487498_m1); Wnt1 (Mm01300-555_g1); Yap1 (Mm011432-63_m1); Taz (Mm01289583_m1); Tnfsf11 Mm00441906_m1; Tnfrsf11b (Mm00435452_m1); Sost (Mm00470479_m1); and ribosomal protein S2 (Mrps2) (Mm00475529_m1). We calculated relative mRNA amounts using the ΔCt method (Livak and Schmittgen, 2001). […] We obtained two custom Taqman assays from Applied Biosystems for quantifying Piezo1 gene deletion efficiency: one specific for sequences between the loxP sites and the other specific for sequences downstream from the 3′ loxP site.

For a further series, the system named is C57BL/6J mice. The series can be described thus: In vivo bone mass evaluation by μCT and body weight after 2 weeks of administration. The settings on record: 4-month-old female C57BL/6J mice, 5 μmol/kg intraperitoneally, 5 days per week for 2 weeks. The protocol:
To quantify cancellous bone formation, we injected mice with calcein (20 mg/kg body weight) intraperitoneally 7 and 3 days before harvest. To quantify periosteal and endocortical bone formation, we injected mice with calcein (20 mg/kg body weight) and Alizarin Red (20 mg/kg body weight) 10 and 3 days before harvest. For gene expression, we injected Yoda1 into 4-month-old female C57BL/6J mice one time and harvested tibiae 4 hours later for RNA extraction. For bone mass evaluation, we injected Yoda1 into 4-month-old female C57BL/6J mice 5 consecutive days per week for 2 weeks (day 1-5 and day 8-12) and harvested the mice at day 15 for analysis. Yoda1 (Sigma, St. Louis, MO) was dissolved in DMSO at 40 mM as a stock, diluted in 5% ethanol, and injected intraperitoneally at 5 μmol/kg body weight. Mice were rank-ordered by body weight and then assigned to Veh or Yoda1 groups to give identical group means. All investigators involved in data collection were blinded as to the genotype and group of the mice.
Skeletal analysis. Tibial X-rays were obtained using an UltraFocus X-ray machine (Faxitron Bioptics, Tucson, Arizona) and BMD of the lumbar spine and femur were measured by dual-energy X-ray absorptiometry using a PIXImus Densitometer (GE-Lunar Corp.) Three dimensional bone volume and architecture of L4 vertebra, femur, and tibia were measured by μCT (model μCT40, Scanco Medical, Wayne, PA). The femur, vertebrae (L4), or tibia, were cleaned of soft tissues and fixed in 10% Millonig's formalin for 24 hours. Bone were then gradually dehydrated into 100% ethanol. Bone samples were loaded into a 12.3 mm diameter scanning tube and images acquired in the μCT40. The scans were integrated into 3D voxel images (1024×1024 pixel matrices for each individual planar stack) and a Gaussian filter (sigma=0.8, support=1) was used to reduce signal noise. Scanco Eval Program v.6.0 was used for measuring bone volume. A threshold of 220 mg/cm^3 was applied to all scans at medium resolution (E=55 kVp, I=145 μA, integration time=200 ms) for trabecular bone measurements. The cortical bone and the primary spongiosa were manually excluded from the analysis. Trabecular bone measurements at the distal femur were made on 151 slices beginning 8-10 slices away from the growth plate and proceeding proximally. […] All trabecular measurements were made by drawing contours every 10 to 20 slices and voxel counting was used for bone volume per tissue volume and sphere filling distance transformation indices, without pre-assumptions about the bone shape as a rod or plate for trabecular microarchitecture. Femoral cortical thickness, periosteal circumference, and endocortical circumference were measured at the mid-diaphysis. For tibial cortical thickness, we analyzed 18 slices 5 mm proximal from the distal tibiofibular junction. Vertebral cortical bone thickness was determined on the ventral cortical wall using contours of cross-sectional images, drawn to exclude trabecular bone. Cortical analysis were measured at a threshold of 260 mg/cm^3. Calibration and quality control were performed weekly using five density standards and spatial resolution was verified monthly using a tungsten wire rod. We based beam-hardening correction on the calibration records. Corrections for 200 mg hydroxyapatite were made for all energies.

“Also recorded” adds a separate entry of the source.

With `Fc1ccc(Cl)c(CSc2nnc(-c3cnccn3)s2)c1Cl` [YW-3-170], in the series with calvaria cells [1], the “changes in mitochondrial oxygen consumption rate in cells lacking Piezo1” value was “significantly blunted” and the “increases in ATP production in Piezo1 knockout cells” value is “diminished”. For the same compound, in the series on calvaria cells [1] (wildtype calvaria cells), the ATP production entry is recorded as “increase”, the “ATP production compared with Yoda1” value was “more ATP production than Yoda1” and the “mitochondrial oxygen consumption rate at basal level as well as stimulated level” value is given as “increased”. In addition, the “mitochondrial oxygen consumption rate at basal level as well as stimulated level” value in the series with calvaria cells [1] (wildtype calvaria cells, listed as 170) is recorded as “increase”. In the series on calvaria cells [2] (listed as 170), the “increases in mitochondria staining in Piezo1 knockout cells” value (from here on “increases in mitochondria staining”) was “requires Piezo1” and the mitochondria staining entry is given as “increase”. Further, in the series on calvaria cells [2] (listed as compound I), the “increases in mitochondria staining” value is recorded as “blunted” and the mitochondria staining result is “increased”. The “stimulation of mitochondria staining compared with Yoda1” value with calvaria cells [2] (calvaria cells) was “more potent stimulation of mitochondria staining than Yoda1”. Further, the “Piezo1 agonist activity (conclusion in words)” value at Piezo1 (MLO-Y4 cells) was “potent agonists for Piezo1; also recorded: potent and specific Piezo1 agonists”. For the same compound, on Piezo1 (MLO-Y4 cells in vitro), the “activity in activating Piezo1 compared to Yoda1” value was “comparable or superior activity”.

Turning to `Clc1cccc(Cl)c1CSc1nnc(-c2cnccn2)s1` [Yoda1], in series [3], the “Wnt1 expression in osteocyte-enriched cortical bone in vivo” value was “increased”. Besides, in the series with C57BL/6J mice, the body weight result is listed as “did not alter”, the “cancellous bone mass in the distal femur” value was “increased”, the “cancellous bone volume in vertebrae” value is reported as “did not detect changes” and the “cortical thickness in the distal femur” value is given as “increased”. In the series on C57BL/6J mice, the “cortical thickness in the vertebra” value is reported as “increased”. For the same compound, in the series on calvaria cells [1], the “changes in mitochondrial oxygen consumption rate in cells lacking Piezo1” value is reported as “significantly blunted” and the “increases in ATP production in Piezo1 knockout cells” value is given as “diminished”. Further, in the series with calvaria cells [1] (wildtype calvaria cells), the ATP production result was “stimulated; also recorded: increase” and the “mitochondrial oxygen consumption rate at basal level as well as stimulated level” value is given as “increase”. In addition, in the series on calvaria cells [2], the “increases in mitochondria staining” value is on record as “blunted; also recorded: requires Piezo1” and the mitochondria staining result is reported as “increase”.

For the origin of these results see patent US20240059685A1, “PIEZO1 AGONISTS FOR THE PROMOTION OF BONE FORMATION” (BIOVENTURES, LLC, priority 2019, published 2024).
